Test results from publication PMC11129975, “A first-in-human phase I study of TAS-117, an allosteric AKT inhibitor, in patients with advanced solid tumors” (Cancer Chemotherapy and Pharmacology, 2024).

Experiment: Phase I safety: adverse events, adverse drug reactions, DLTs in patients with advanced solid tumors
Type: in vivo, human
Settings: for Adverse drug reactions: ALT increased / Adverse drug reactions: AST increased / Adverse drug reactions: Any events / Adverse drug reactions: Blood AP increased / Adverse drug reactions: Decreased appetite / Adverse drug reactions: Diarrhea / Adverse drug reactions: Dry skin / Adverse drug reactions: GGT increased / Adverse drug reactions: GI disorders / Adverse drug reactions: General disorders and administration site conditions / Adverse drug reactions: Hyperglycemia / Adverse drug reactions: Investigations / Adverse drug reactions: Metabolism and nutrition disorders / Adverse drug reactions: Nausea / Adverse drug reactions: Neutrophil count decreased / Adverse drug reactions: Pruritus / Adverse drug reactions: Pyrexia / Adverse drug reactions: Rash maculo-papular / Adverse drug reactions: Skin and SC tissue disorders / Adverse drug reactions: Stomatitis / Adverse drug reactions: Vomiting / Adverse drug reactions: WBC count decreased / Adverse events: ALT increased / Adverse events: AST increased / Adverse events: Any events / Adverse events: Blood AP increased / Adverse events: Decreased appetite / Adverse events: Diarrhea / Adverse events: Dry skin / Adverse events: GGT increased / Adverse events: GI disorders / Adverse events: General disorders and administration site conditions / Adverse events: Hyperglycemia / Adverse events: Investigations / Adverse events: Metabolism and nutrition disorders / Adverse events: Nausea / Adverse events: Neutrophil count decreased / Adverse events: Pruritus / Adverse events: Pyrexia / Adverse events: Rash maculo-papular / Adverse events: Skin and SC tissue disorders / Adverse events: Stomatitis / Adverse events: Vomiting / Adverse events: WBC count decreased: DEP n = 12
Description: This was a phase I, open-label, non-randomized, dose-escalating first-in-human study to evaluate the safety, pharmacokinetics, antitumor activity, pharmacodynamics, and pharmacogenomics of TAS-117 in patients with advanced solid tumors. The study had three phases: a dose escalation phase (DEP), a regimen modification phase (RMP), and a safety assessment phase (SAP). The treatment cycle on each regimen lasted 21 days. The DEP used an accelerated titration and 3 + 3 design. TAS-117 was administered orally once daily (QD) on an empty stomach (1 h before or 2 h after a meal). Dosing was determined based on a 4-week repeated oral-dose toxicology study in monkeys (data on file, Taiho Pharmaceutical Co., Ltd.); the highest non-severely toxic dose was 1.2 mg/kg/day, which was converted to 3.84 mg/body/day, or 2.4 mg/m^2. Therefore, the starting dose was determined to be ≤ 2.4 mg/m^2. At dose level 1, TAS-117 was administered at 2 mg QD (Day − 2), and the dose was increased to 4 mg QD after 2 days (Day 1). The RMP was conducted according to a 3 + 3 design. During this phase, the dose regimen was changed from QD administration to intermittent dosing of daily TAS-117 with 4 days on/3 days off. TAS-117 was administered on an empty stomach. Dose-limiting toxicities (DLTs) were evaluated in Cycle 1 of the DEP and RMP. […] The RD and regimen for the SAP were determined based on the safety, pharmacokinetics, pharmacodynamics, and antitumor activity profile determined in the DEP and RMP. During the SAP, the safety and preliminary efficacy profiles of TAS-117 were assessed at the RD and recommended regimen. Three cohorts were included in this assessment. Cohort 1 included patients with endometrial cancer with a PIK3CA mutation; cohort 2 included patients with endometrial cancer with an AKT1 mutation, AKT1 amplification, or AKT2 amplification; and cohort 3 included patients with ovarian clear cell carcinoma.
The primary endpoints were the proportion of patients who experienced DLTs in Cycle 1 of the DEP and RMP and the incidence of adverse events (AEs) and adverse drug reactions (ADRs) in the SAP. AEs and ADRs were coded using the Medical Dictionary for Regulatory Activities (MedDRA; version 24.1) and graded according to the National Cancer Institute Common Terminology Criteria for Adverse Events (CTCAE; version 4.03). Secondary endpoints were pharmacokinetic findings, changes in the ratio of phosphorylated PRAS40 (pPRAS40)/total PRAS40 from baseline, efficacy, and pharmacogenomics findings.

## C[C@]1(O)C[C@@](N)(c2ccc(-c3nc4n(c3-c3ccccc3)COc3ccncc3-4)cc2)C1 [TAS-117]
DEP dose level 4 (24 mg QD)
  Grade 2 maculopapular rash requiring study interruption: All patients
All grade
  Adverse drug reactions: ALT increased: 1 (8.3) n (%)
  Adverse drug reactions: AST increased: 1 (8.3) n (%)
  Adverse drug reactions: Any events: 11 (91.7) n (%)
  Adverse drug reactions: Blood AP increased: 1 (8.3) n (%)
  Adverse drug reactions: Decreased appetite: 2 (16.7) n (%)
  Adverse drug reactions: Diarrhea: 1 (8.3) n (%)
  Adverse drug reactions: Dry skin: 0 (0.0) n (%)
  Adverse drug reactions: GGT increased: 1 (8.3) n (%)
  Adverse drug reactions: GI disorders: 4 (33.3) n (%)
  Adverse drug reactions: General disorders and administration site conditions: 2 (16.7) n (%)
  Adverse drug reactions: Hyperglycemia: 4 (33.3) n (%)
  Adverse drug reactions: Investigations: 5 (41.7) n (%)
  Adverse drug reactions: Metabolism and nutrition disorders: 5 (41.7) n (%)
  Adverse drug reactions: Nausea: 1 (8.3) n (%)
  Adverse drug reactions: Neutrophil count decreased: 3 (25.0) n (%)
  Adverse drug reactions: Pruritus: 1 (8.3) n (%)
  Adverse drug reactions: Pyrexia: 1 (8.3) n (%)
  Adverse drug reactions: Rash maculo-papular: 9 (75.0) n (%)
  Adverse drug reactions: Skin and SC tissue disorders: 11 (91.7) n (%)
  Adverse drug reactions: Stomatitis: 3 (25.0) n (%)
  Adverse drug reactions: Vomiting: 2 (16.7) n (%)
  Adverse drug reactions: WBC count decreased: 3 (25.0) n (%)
  Adverse events: ALT increased: 3 (25.0) n (%)
  Adverse events: AST increased: 3 (25.0) n (%)
  Adverse events: Any events: 11 (91.7) n (%)
  Adverse events: Blood AP increased: 2 (16.7) n (%)
  Adverse events: Decreased appetite: 5 (41.7) n (%)
  Adverse events: Diarrhea: 3 (25.0) n (%)
  Adverse events: Dry skin: 0 (0.0) n (%)
  Adverse events: GGT increased: 2 (16.7) n (%)
  Adverse events: GI disorders: 7 (58.3) n (%)
  Adverse events: General disorders and administration site conditions: 5 (41.7) n (%)
  Adverse events: Hyperglycemia: 4 (33.3) n (%)
  Adverse events: Investigations: 6 (50.0) n (%)
  Adverse events: Metabolism and nutrition disorders: 9 (75.0) n (%)
  Adverse events: Nausea: 2 (16.7) n (%)
  Adverse events: Neutrophil count decreased: 3 (25.0) n (%)
  Adverse events: Pruritus: 1 (8.3) n (%)
  Adverse events: Pyrexia: 1 (8.3) n (%)
  Adverse events: Rash maculo-papular: 9 (75.0) n (%)
  Adverse events: Skin and SC tissue disorders: 11 (91.7) n (%)
  Adverse events: Stomatitis: 3 (25.0) n (%)
  Adverse events: Vomiting: 3 (25.0) n (%)
  Adverse events: WBC count decreased: 3 (25.0) n (%)
≥ Grade 3
  Adverse drug reactions: ALT increased: 0 (0.0) n (%)
  Adverse drug reactions: AST increased: 0 (0.0) n (%)
  Adverse drug reactions: Any events: 3 (25.0) n (%)
  Adverse drug reactions: Blood AP increased: 0 (0.0) n (%)
  Adverse drug reactions: Decreased appetite: 0 (0.0) n (%)
  Adverse drug reactions: Diarrhea: 0 (0.0) n (%)
  Adverse drug reactions: Dry skin: 0 (0.0) n (%)
  Adverse drug reactions: GGT increased: 0 (0.0) n (%)
  Adverse drug reactions: GI disorders: 0 (0.0) n (%)
  Adverse drug reactions: General disorders and administration site conditions: 0 (0.0) n (%)
  Adverse drug reactions: Hyperglycemia: 2 (16.7) n (%)
  Adverse drug reactions: Investigations: 1 (8.3) n (%)
  Adverse drug reactions: Metabolism and nutrition disorders: 2 (16.7) n (%)
  Adverse drug reactions: Nausea: 0 (0.0) n (%)
  Adverse drug reactions: Neutrophil count decreased: 0 (0.0) n (%)
  Adverse drug reactions: Pruritus: 0 (0.0) n (%)
  Adverse drug reactions: Pyrexia: 0 (0.0) n (%)
  Adverse drug reactions: Rash maculo-papular: 0 (0.0) n (%)
  Adverse drug reactions: Skin and SC tissue disorders: 0 (0.0) n (%)
  Adverse drug reactions: Stomatitis: 0 (0.0) n (%)
  Adverse drug reactions: Vomiting: 0 (0.0) n (%)
  Adverse drug reactions: WBC count decreased: 1 (8.3) n (%)
  Adverse events: ALT increased: 0 (0.0) n (%)
  Adverse events: AST increased: 1 (8.3) n (%)
  Adverse events: Any events: 3 (25.0) n (%)
  Adverse events: Blood AP increased: 1 (8.3) n (%)
  Adverse events: Decreased appetite: 0 (0.0) n (%)
  Adverse events: Diarrhea: 0 (0.0) n (%)
  Adverse events: Dry skin: 0 (0.0) n (%)
  Adverse events: GGT increased: 1 (8.3) n (%)
  Adverse events: GI disorders: 0 (0.0) n (%)
  Adverse events: General disorders and administration site conditions: 0 (0.0) n (%)
  Adverse events: Hyperglycemia: 2 (16.7) n (%)
  Adverse events: Investigations: 3 (25.0) n (%)
  Adverse events: Metabolism and nutrition disorders: 2 (16.7) n (%)
  Adverse events: Nausea: 0 (0.0) n (%)
  Adverse events: Neutrophil count decreased: 0 (0.0) n (%)
  Adverse events: Pruritus: 0 (0.0) n (%)
  Adverse events: Pyrexia: 0 (0.0) n (%)
  Adverse events: Rash maculo-papular: 0 (0.0) n (%)
  Adverse events: Skin and SC tissue disorders: 0 (0.0) n (%)
  Adverse events: Stomatitis: 0 (0.0) n (%)
  Adverse events: Vomiting: 0 (0.0) n (%)
  Adverse events: WBC count decreased: 1 (8.3) n (%)
QD dosing, patients with advanced or metastatic solid tumors
  Recommended dose (RD): 16 mg
RMP dose level 4 (24 mg), intermittent administration
  DLTs: No DLTs
